Data published in US20250049036A1 (priority 2021, published 2025).

What was measured:
[1] = system: Pyricularia oryzae; assay: microbe, parasite or virus in culture; format: cell-based; details: 168 h, read-out: control compared to the untreated check
[2] = system: Alternaria solani; assay: Alternaria solani (early blight of tomato/potato) mycelial radial growth on potato dextrose agar; format: cell-based; details: 168 h, 25° C., seven days, read-out: control compared to the untreated check
Protocol: (§1) The compounds were dissolved in 0.3% dimethyl sulfoxide and then added to potato dextrose agar medium just prior to dispensing it into petri dishes. 5 mL medium, with the compound in the desired concentration, was dispensed into 60 mm sterile petri-plates. After solidification, each plate was seeded with a 5 mm size mycelial disc taken from the periphery of an actively growing virulent culture plate. The plates were incubated in growth chambers at 25° C. temperature and 60% relative humidity for seven days and the radial growth was measured and compared to the one of the untreated control.

[3] = system: Colletotrichum capsici; assay: Colletotrichum capsici (anthracnose) mycelial radial growth on potato dextrose agar; format: cell-based; details: Colletotrichum truncatum, 168 h, 25° C., seven days, read-out: control compared to the untreated check
Procedure, shortened: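 Compounds in 0.3% DMSO were mixed into potato dextrose agar, and each plate was seeded with a 5 mm mycelial disc from an actively growing culture. Plates were incubated at 25° C and 60% relative humidity for seven days. Radial growth was compared with untreated control.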

[4] = system: Botrytis cinerea; assay: Botrytis cinerea test on tomato, preventive, greenhouse; format: in vivo; details: preventive spray on bean/chili plants (heading: tomato), inoculated one day after treatment, read-out: control (efficacy, disease severity) compared to the untreated check
[5] = system: Phakopsora pachyrhizi; assay: Phakopsora pachyrhizi test on soybean, preventive, greenhouse; format: in vivo; details: preventive spray on soybean, inoculated one day after treatment, read-out: control (efficacy, disease severity) compared to the untreated check
Procedure, shortened: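 Preventive protocol: plants inoculated with a 2×10^5 P. pachyrhizi conidial suspension one day after spray application at the stated rate, then incubated at 22-24 °C and 80-90% RH. Compound was applied from 2% DMSO/acetone diluted in emulsified water.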

[6] = system: Parastagonospora nodorum; assay: Parastagonospora nodorum (PARANO) spore growth inhibition in liquid medium, 96-well microtiter plate, OD 600; format: cell-based; details: spore suspension in PDB liquid medium, 18° C., 5-6 days, OD at 600, read-out: control compared to the untreated check
Procedure, shortened: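 Read-out is percent growth inhibition from OD at 600 after 5-6 days at 18° C. Compounds, dissolved in DMSO, were diluted in potato dextrose broth and combined in equal volume with a 10^5 spores/ml suspension of PARANO.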

[7] = system: Phytophthora infestans; assay: microbe, parasite or virus in culture; format: cell-based; details: 168 h, read-out: control compared to the untreated check
[8] = system: Phytophthora infestans; assay: whole plant or invertebrate; format: in vivo, Phytophthora infestans on tomato; details: in Solanum lycopersicum, read-out: control (efficacy, disease severity) compared to the untreated check
[9] = system: Botrytis cinerea; assay: Botrytis cinerea liq. (BOTRCI) spore growth inhibition in liquid medium, 96-well microtiter plate, OD 405 nm; format: cell-based; details: spore suspension in YBA liquid medium, 22° C., 5-6 days, OD at 405 nm, read-out: control compared to the untreated check
Procedure, shortened: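 Spore suspension of B. cinerea (10^4 spores/ml) in YBA liquid medium mixed 1:1 with compound diluted from DMSO. Incubated at 22° C. for 5-6 days. Growth read as OD 405 nm; percent inhibition derived from treatment, untreated-control and blank readings.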

[10] = system: Venturia Inequalis; assay: Venturia inequalis (VENTIN) spore growth inhibition in liquid medium, 96-well microtiter plate, OD 600; format: cell-based; details: spore suspension in PDB liquid medium, 18° C., 15-18 days, OD at 600, read-out: control compared to the untreated check
Protocol: Potato dextrose (PDB) liquid medium containing a VENTIN (10^5 spores/ml) spore suspension was prepared. For the inhibition assay, each test compound was solved in dimethyl sulfoxide. 100 μl of the test compound in media-solution was added to a 96-well microtiter plate, consequently, the same volume (100 μl) of spore suspension was added to the well making the final test concentrations and the treated plate was incubated at 18° C. for 15-18 days. The growth inhibition was evaluated by measuring the OD at 600. Percent inhibition was calculated with the below formula: […]

[11] = system: Botrytis cinerea; assay: Botrytis cinerea (gray mold) mycelial radial growth on potato dextrose agar; format: cell-based; details: 168 h, 22° C., seven days, read-out: control compared to the untreated check
Protocol: as §1, with “22°” for “25°”, “90%” for “60%”

Cn1ccc2cc(C(=O)NC(C)(C)Cc3ccccc3)cnc21 [Compound 1, 1-methyl-N-(2-methyl-1-phenylpropan-2-yl)-1H-pyrrolo[2,3-b]pyridine-5-carboxamide]
≥ 70%: inhibition of growth at 300 ppm [1] | inhibition of growth at 300 ppm [2] | inhibition of growth at 300 ppm [3] | pest or weed control at 500 ppm [4] | pest or weed control at 500 ppm [5]

Cn1ccc2cc(C(=O)NC(C)(C)C(C)(C)c3ccccc3)cnc21 [Compound 5, N-(2,3-dimethyl-3-phenylbutan-2-yl)-1-methyl-1H-pyrrolo[2,3-b]pyridine-5-carboxamide]
≥ 70%: inhibition of growth at 300 ppm [2] | inhibition of growth at 300 ppm [6] | pest or weed control at 500 ppm [5]

CC(c1ccccc1Cl)C(C)(C)NC(=O)c1cnc2c(ccn2C)c1 (stereo not drawn) [Compound 7, N-(3-(2-chlorophenyl)-2-methylbutan-2-yl)-1-methyl-1H-pyrrolo[2,3-b]pyridine-5-carboxamide]
≥ 70%: inhibition of growth at 300 ppm [1] | inhibition of growth at 300 ppm [2] | inhibition of growth at 300 ppm [6]

Cn1ccc2cc(C(=O)NC3(Cc4ccccc4)CCCC3)cnc21 [Compound 10, N-(1-benzylcyclopentyl)-1-methyl-1H-pyrrolo[2,3-b]pyridine-5-carboxamide]
≥ 70%: inhibition of growth at 300 ppm [2] | inhibition of growth at 300 ppm [3] | inhibition of growth at 300 ppm [7] | inhibition of growth at 300 ppm [6] | pest or weed control at 500 ppm [8] | pest or weed control at 500 ppm [5]

Cn1ccc2cc(C(=O)NC3(Cc4ccccc4)CCCCC3)cnc21 [Compound 11, N-(1-benzylcyclohexyl)-1-methyl-1H-pyrrolo[2,3-b]pyridine-5-carboxamide]
≥ 70%: inhibition of growth at 300 ppm [1] | inhibition of growth at 300 ppm [2] | inhibition of growth at 300 ppm [3] | inhibition of growth at 300 ppm [6]

Cn1ccc2cc(C(=O)NC3(Cc4cccc(Cl)c4)CCCCC3)cnc21 [Compound 12, N-(1-(3-chlorobenzyl)cyclohexyl)-1-methyl-1H-pyrrolo[2,3-b]pyridine-5-carboxamide]
≥ 70%: inhibition of growth at 300 ppm [1] | inhibition of growth at 300 ppm [2] | inhibition of growth at 300 ppm [3]

Cn1ccc2cc(C(=O)NC(C)(C)Cc3ccccc3F)cnc21 [Compound 13, N-(1-(2-fluorophenyl)-2-methylpropan-2-yl)-1-methyl-1H-pyrrolo[2,3-b]pyridine-5-carboxamide]
≥ 70%: inhibition of growth at 300 ppm [1] | inhibition of growth at 300 ppm [2] | inhibition of growth at 300 ppm [3] | inhibition of growth at 300 ppm [7] | inhibition of growth at 300 ppm [6] | inhibition of growth at 300 ppm [9]

Cn1ccc2cc(C(=O)NC(C)(C)Cc3cccc(C(F)(F)F)c3)cnc21 [Compound 14, 1-methyl-N-(2-methyl-1-(3-(trifluoromethyl)phenyl)propan-2-yl)-1H-pyrrolo[2,3-b]pyridine-5-carboxamide]
≥ 70%: inhibition of growth at 300 ppm [2] | inhibition of growth at 300 ppm [9]

CC(C)CC(C)(Cc1ccccc1)NC(=O)c1cnc2[nH]ccc2c1 (stereo not drawn) [Compound 28, N-(2,4-dimethyl-1-phenylpentan-2-yl)-1H-pyrrolo[2,3-b] pyridine-5-carboxamide]
≥ 70%: inhibition of growth at 300 ppm [2] | inhibition of growth at 300 ppm [3] | inhibition of growth at 300 ppm [7] | inhibition of growth at 300 ppm [6] | pest or weed control at 500 ppm [5]

Cn1ccc2cc(C(=O)NC3(Cc4ccccc4)CC3)cnc21 [Compound 39, N-(1-benzylcyclopropyl)-1-methyl-1H-pyrrolo[2,3-b]pyridine-5-carboxamide]
≥ 70%: inhibition of growth at 300 ppm [1] | inhibition of growth at 300 ppm [3] | inhibition of growth at 300 ppm [7] | inhibition of growth at 300 ppm [10] | pest or weed control at 500 ppm [8] | pest or weed control at 500 ppm [5]

CC(C)(Cc1ccc(F)cc1)NC(=O)c1cnc2[nH]ccc2c1 [Compound 41, N-(1-(4-fluorophenyl)-2-methylpropan-2-yl)-1H-pyrrolo[2,3-b] pyridine-5-carboxamide]
≥ 70%: inhibition of growth at 300 ppm [7] | inhibition of growth at 300 ppm [10] | pest or weed control at 500 ppm [4] | pest or weed control at 500 ppm [8] | pest or weed control at 500 ppm [5]

CC(C)CC(C)(Cc1ccccc1)NC(=O)c1cnc2c(c1)c(Cl)cn2C (stereo not drawn) [Compound 52, 3-chloro-N-(2,4-dimethyl-1-phenylpentan-2-yl)-1-methyl-1H-pyrrolo[2,3-b]pyridine-5-carboxamide]
≥ 70%: inhibition of growth at 300 ppm [10] | pest or weed control at 500 ppm [8] | pest or weed control at 500 ppm [5]

Cn1cc(Cl)c2cc(C(=O)NC(C)(C)Cc3ccccc3)cnc21 [Compound 53, 3-chloro-1-methyl-N-(2-methyl-1-phenylpropan-2-yl)-1H-pyrrolo[2,3-b] pyridine-5-carboxamide]
≥ 70%: inhibition of growth at 300 ppm [1] | inhibition of growth at 300 ppm [10] | pest or weed control at 500 ppm [8] | pest or weed control at 500 ppm [5]

Cn1cc(F)c2cc(C(=O)NC(C)(C)Cc3ccccc3F)cnc21 [Compound 68, 3-fluoro-N-(1-(2-fluorophenyl)-2-methylpropan-2-yl)-1-methyl-1H-pyrrolo[2,3-b]pyridine-5-carboxamide]
≥ 70%: inhibition of growth at 300 ppm [10] | pest or weed control at 500 ppm [8] | pest or weed control at 500 ppm [5]

Cn1cc(F)c2cc(C(=O)NC(C)(C)Cc3ccc(Cl)c(F)c3)cnc21 [Compound 69, N-(1-(4-chloro-3-fluorophenyl)-2-methylpropan-2-yl)-3-fluoro-1-methyl-1H-pyrrolo[2,3-b]pyridine-5-carboxamide]
≥ 70%: inhibition of growth at 300 ppm [1] | inhibition of growth at 300 ppm [10] | pest or weed control at 500 ppm [8]

CC(CCc1ccccc1)NC(=O)c1cnc2c(ccn2C)c1 (stereo not drawn) [Compound 75, 1-methyl-N-(4-phenylbutan-2-yl)-1H-pyrrolo[2,3-b]pyridine-5-carboxamide]
≥ 70%: inhibition of growth at 300 ppm [11] | inhibition of growth at 300 ppm [3] | inhibition of growth at 300 ppm [6] | inhibition of growth at 300 ppm [10] | inhibition of growth at 300 ppm [9] | pest or weed control at 500 ppm [4] | pest or weed control at 500 ppm [8] | pest or weed control at 500 ppm [5]

Cn1ccc2cc(C(=O)NCC3(c4ccccc4)CC3)cnc21 [Compound 79, 1-methyl-N-((1-phenylcyclopropyl)methyl)-1H-pyrrolo [2,3-b]pyridine-5-carboxamide]
≥ 70%: inhibition of growth at 300 ppm [1] | inhibition of growth at 300 ppm [7] | inhibition of growth at 300 ppm [6] | inhibition of growth at 300 ppm [10] | pest or weed control at 500 ppm [8]

Cn1cc(Cl)c2cc(C(=O)NC(C)(C)Cc3ccccc3Cl)cnc21 [Compound 83, 3-chloro-N-(1-(2-chlorophenyl)-2-methylpropan-2-yl)-1-methyl-1H-pyrrolo[2,3-b]pyridine-5-carboxamide]
≥ 70%: inhibition of growth at 300 ppm [1] | inhibition of growth at 300 ppm [10] | pest or weed control at 500 ppm [4] | pest or weed control at 500 ppm [8] | pest or weed control at 500 ppm [5]

Cn1cc(C2CC2)c2cc(C(=O)NC(C)(C)Cc3ccccc3Cl)cnc21 [Compound 85, N-(1-(2-chlorophenyl)-2-methylpropan-2-yl)-3-cyclopropyl-1-methyl-1H-pyrrolo[2,3-b]pyridine-5-carboxamide]
≥ 70%: inhibition of growth at 300 ppm [1] | inhibition of growth at 300 ppm [2] | inhibition of growth at 300 ppm [6] | pest or weed control at 500 ppm [8] | pest or weed control at 500 ppm [5]
